The text below walks through data of patent publication US8143263B2, “Therapeutic agents” (Astrazeneca AB, priority 2008, dated 2012).

For the experiment, the target named is T1, recombinant human pancreatic GLK (Homo sapiens, UniProt P35557).
T1 sequence (P35557 1-465): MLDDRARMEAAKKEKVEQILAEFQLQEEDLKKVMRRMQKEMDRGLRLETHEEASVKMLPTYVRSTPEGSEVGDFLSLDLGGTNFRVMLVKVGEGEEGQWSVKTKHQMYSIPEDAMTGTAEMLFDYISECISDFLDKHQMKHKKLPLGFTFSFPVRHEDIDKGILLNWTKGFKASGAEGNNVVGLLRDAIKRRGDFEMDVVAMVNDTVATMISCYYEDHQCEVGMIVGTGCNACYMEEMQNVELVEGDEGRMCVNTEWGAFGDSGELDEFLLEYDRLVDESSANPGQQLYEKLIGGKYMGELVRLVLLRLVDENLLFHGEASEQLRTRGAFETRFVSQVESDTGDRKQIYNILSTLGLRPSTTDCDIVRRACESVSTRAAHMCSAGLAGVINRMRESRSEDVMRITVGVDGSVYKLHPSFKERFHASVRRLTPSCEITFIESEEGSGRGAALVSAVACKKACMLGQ
Kind of experiment: biochemical.
By EC50 is commonly meant the concentration needed to bring the measured effect to its halfway point. `O=C(Nc1ccc(F)cn1)[C@H](CCO)Oc1ncnc2c1cnn2-c1ncccc1Cl` [Example 143d, (2S)-2-[1-(3-chloro-2-pyridyl)pyrazolo[4,5-e]pyrimidin-4-yl]oxy-N-(5-fluoro-2-pyridyl)-4-hydroxy-butanamide]: the EC50 was 590 nM.
With `N#Cc1ccc(NC(=O)[C@H](CCO)Oc2ncnc3c2cnn3-c2ncccc2Cl)nc1` [Example 143e, (2S)-2-[1-(3-chloro-2-pyridyl)pyrazolo[4,5-e]pyrimidin-4-yl]oxy-N-(5-cyano-2-pyridyl)-4-hydroxy-butanamide], the EC50 came to 530 nM.
For `O=C(Nc1ccncn1)[C@H](CCO)Oc1ncnc2c1cnn2-c1ncccc1Cl` [Example 143f, (2S)-2-[1-(3-chloro-2-pyridyl)pyrazolo[4,5-e]pyrimidin-4-yl]oxy-4-hydroxy-N-pyrimidin-4-yl-butanamide], the EC50 turned out to be 980 nM.
For `Cc1ccc(NC(=O)[C@H](COC2CCC2)Oc2ncnc3c2cnn3-c2nccnc2C)nc1` [Example 144, (2S)-3-(cyclobutoxy)-2-[1-(3-methylpyrazin-2-yl)pyrazolo[4,5-e]pyrimidin-4-yl]oxy-N-(5-methyl-2-pyridyl)propanamide], the EC50 was determined as 510 nM.
For `Cc1ccc(NC(=O)[C@H](CCO)Oc2ncnc3c2cnn3-c2ccccc2Cl)nc1` [Example 145, (2S)-2-[1-(2-chlorophenyl)pyrazolo[4,5-e]pyrimidin-4-yl]oxy-4-hydroxy-N-(5-methyl-2-pyridyl)butanamide], the EC50 was 230 nM.
`Cc1ccc(NC(=O)[C@H](COC(C)C)Oc2ncnc3c2cnn3-c2cccnc2C)nc1` [Example 146, (2S)-3-isopropoxy-N-(5-methyl-2-pyridyl)-2-[1-(2-methyl-3-pyridyl)pyrazolo[4,5-e]pyrimidin-4-yl]oxy-propanamide]: the EC50 came out at 960 nM.
As for `CCOC[C@H](Oc1ncnc2c1cnn2-c1ncccc1Cl)C(=O)Nc1ccc(C(=O)N(C)C)cn1` [Example 147, 6-[[(2S)-2-[1-(3-chloro-2-pyridyl)pyrazolo[4,5-e]pyrimidin-4-yl]oxy-3-ethoxy-propanoyl]amino]-N,N-dimethyl-pyridine-3-carboxamide], the EC50 worked out at 7800 nM.
The figure for `Cc1ccc(NC(=O)[C@H](COC(C)C)Oc2ncnc3c2cnn3-c2cnccc2C)nc1` [Example 148, (2S)-3-isopropoxy-N-(5-methyl-2-pyridyl)-2-[1-(4-methyl-3-pyridyl)pyrazolo[4,5-e]pyrimidin-4-yl]oxy-propanamide] is 930 nM; for `Cc1cnc(NC(=O)[C@H](COC2CCC2)Oc2ncnc3c2cnn3-c2cccnc2C)cn1` [Example 149, (2S)-3-cyclobutoxy-N-(5-methylpyrazin-2-yl)-2-(1-(2-methylpyridin-3-yl)-1H-pyrazolo[3,4-d]pyrimidin-4-yloxy)propanamide] it is 660 nM.
The result for `CCOC[C@H](Oc1ncnc2c1cnn2-c1cccnc1C)C(=O)Nc1ccc(Cl)cn1` [Example 150, (2S)—N-(5-chloropyridin-2-yl)-3-ethoxy-2-(1-(2-methylpyridin-3-yl)-1H-pyrazolo[3,4-d]pyrimidin-4-yloxy)propanamide] reads 1000 nM; that for `COC[C@H](C)OC[C@H](Oc1ncnc2c1cnn2-c1ccccc1Cl)C(=O)Nc1ccc(C)cn1` [Example 152, (2S)-2-(1-(2-chlorophenyl)-1H-pyrazolo[3,4-d]pyrimidin-4-yloxy)-3-((S)-1-methoxypropan-2-yloxy)-N-(5-methylpyridin-2-yl)propanamide], 490 nM; that for `COC[C@@H](C)OC[C@H](Oc1ncnc2c1cnn2-c1ccccc1Cl)C(=O)Nc1ccc(C)cn1` [Example 153, (2S)-2-(1-(2-chlorophenyl)-1H-pyrazolo[3,4-d]pyrimidin-4-yloxy)-3-((R)-1-methoxypropan-2-yloxy)-N-(5-methylpyridin-2-yl)propanamide], 280 nM.
